We go through seven molecules from ChEMBL document CHEMBL5303573, “Mapping human microbiome drug metabolism by gut bacteria and their genes” (Nature, 2019).

Data set [1] in a line: The drug is tested on Bacteroides ovatus strain: ATCC8483 for biotransformation. The drug concentrations were measured before and after a 12-h incubation by liquid-chromatography-coupled mass spectrometry (LC–MS). The following applies: 2 µM.
Data set [2] is described as follows: The drug is tested on Eggerthella lenta strain: ATCC25559 for biotransformation. The drug concentrations were measured before and after a 12-h incubation by liquid-chromatography-coupled mass spectrometry (LC–MS). Particulars: 2 µM.
Data set [3] is described as follows: The drug is tested on Clostridium scindens strain: ATCC35704 for biotransformation. The drug concentrations were measured before and after a 12-h incubation by liquid-chromatography-coupled mass spectrometry (LC–MS). The following applies: 2 µM.
Data set [4] can be described thus: The drug is tested on Dorea formicigenerans strain: ATCC27755 for biotransformation. The drug concentrations were measured before and after a 12-h incubation by liquid-chromatography-coupled mass spectrometry (LC–MS). The following applies: 2 µM.
Data set [5] is described as follows: The drug is tested on Bacteroides pectinophilus strain: ATCC43243 for biotransformation. The drug concentrations were measured before and after a 12-h incubation by liquid-chromatography-coupled mass spectrometry (LC–MS). Particulars: 2 µM.
The nature of data set [6]: The drug is tested on Bacteroides dorei strain: DSM17855 for biotransformation. The drug concentrations were measured before and after a 12-h incubation by liquid-chromatography-coupled mass spectrometry (LC–MS). The following applies: phocaeicola dorei, 2 µM.
Data set [7] can be described thus: The drug is tested on Ruminococcus gnavus strain: ATCC29149 for biotransformation. The drug concentrations were measured before and after a 12-h incubation by liquid-chromatography-coupled mass spectrometry (LC–MS). The following applies: mediterraneibacter gnavus, 2 µM.
Data set [8] is described as follows: The drug is tested on Escherichia coli strain: BW25113 for biotransformation. The drug concentrations were measured before and after a 12-h incubation by liquid-chromatography-coupled mass spectrometry (LC–MS). Particulars: 2 µM.
A short description of data set [9]: The drug is tested on Bacteroides uniformis strain: ATCC8492 for biotransformation. The drug concentrations were measured before and after a 12-h incubation by liquid-chromatography-coupled mass spectrometry (LC–MS). Particulars: 2 µM.
Data set [10] in a line: The drug is tested on Ruminococcus torques strain: ATCC27756 for biotransformation. The drug concentrations were measured before and after a 12-h incubation by liquid-chromatography-coupled mass spectrometry (LC–MS). It counts as ADME. Further details: dose 2 uM, timepoint 0 vs 12 hours. The following applies: 2 µM.
The nature of data set [11]: The drug is tested on Subdoligranulum variabile strain: DSM15176 for biotransformation. The drug concentrations were measured before and after a 12-h incubation by liquid-chromatography-coupled mass spectrometry (LC–MS). The following applies: 2 µM.
Data set [12] can be described thus: The drug is tested on Providencia rettgeri strain: DSM1131 for biotransformation. The drug concentrations were measured before and after a 12-h incubation by liquid-chromatography-coupled mass spectrometry (LC–MS). The following applies: 2 µM. Further details: dose 2 uM, timepoint 0 vs 12 hours. It counts as ADME.
For data set [13] the following is noted: bacteroides eggerthii, 12 h, 2 µM.
Description: The drug is tested on Bacteroides eggerthii strain: DSM20697 for biotransformation. The drug concentrations were measured before and after a 12-h incubation by liquid-chromatography-coupled mass spectrometry (LC–MS)
Data set [14] in a line: The drug is tested on Clostridium asparagiforme strain: DSM15981 for biotransformation. The drug concentrations were measured before and after a 12-h incubation by liquid-chromatography-coupled mass spectrometry (LC–MS). Format: ADME. Further details: dose 2 uM, timepoint 0 vs 12 hours. The following applies: enterocloster asparagiformis, 2 µM.
The nature of data set [15]: The drug is tested on Clostridium sp. strain: fecal isolate for biotransformation. The drug concentrations were measured before and after a 12-h incubation by liquid-chromatography-coupled mass spectrometry (LC–MS). Particulars: 2 µM.
A short description of data set [16]: The drug is tested on Bifidobacterium ruminantium strain: fecal isolate for biotransformation. The drug concentrations were measured before and after a 12-h incubation by liquid-chromatography-coupled mass spectrometry (LC–MS). The following applies: 2 µM.
The nature of data set [17]: The drug is tested on Anaerotruncus colihominis strain: DSM17241 for biotransformation. The drug concentrations were measured before and after a 12-h incubation by liquid-chromatography-coupled mass spectrometry (LC–MS). The following applies: 2 µM.
A short description of data set [18]: The drug is tested on Enterococcus faecalis strain: V583 for biotransformation. The drug concentrations were measured before and after a 12-h incubation by liquid-chromatography-coupled mass spectrometry (LC–MS). Particulars: 2 µM.
For data set [19] the following is noted: bifidobacterium adolescentis, 12 h, 2 µM.
Description: The drug is tested on Bifidobacterium adolescentis strain: ATCC 15703 for biotransformation. The drug concentrations were measured before and after a 12-h incubation by liquid-chromatography-coupled mass spectrometry (LC–MS)
Data set [20] in a line: The drug is tested on Enterobacter cancerogenus strain: ATCC35316 for biotransformation. The drug concentrations were measured before and after a 12-h incubation by liquid-chromatography-coupled mass spectrometry (LC–MS). Particulars: 2 µM.

For `CN1CCC[C@@H]1CCO[C@](C)(c1ccccc1)c1ccc(Cl)cc1.O=C(O)/C=C/C(=O)O` [CLEMASTINE FUMARATE], the “Bacterial Biotransformation” value in [1] is “Compound NOT metabolized”; in data set [2], “Compound NOT metabolized”; in data set [3] it was “Compound NOT metabolized”; in data set [4], “Compound NOT metabolized”; in [5] it was “Compound metabolized”; in data set [6] it was “Compound metabolized”. The “Bacterial Biotransformation” value in data set [7] was “Compound NOT metabolized”; in [8] it was “Compound metabolized”; in data set [9], “Compound metabolized”; in data set [10], “Compound NOT metabolized”; in [11], “Compound NOT metabolized”; in data set [12], “Compound metabolized”. In addition, the figures for the “Bacterial Biotransformation” value in data set [13], in data set [14] and in data set [15] were “Compound metabolized”, “Compound NOT metabolized” and “Compound metabolized”, respectively.

For the molecule `Nc1ccc(/N=N/c2ccccc2)c(N)n1` [PHENAZOPYRIDINE], the “Bacterial Biotransformation” value in data set [1] is on record as “Compound metabolized”; in data set [2] it was “Compound metabolized”; in data set [3], “Compound metabolized”; in data set [4] it was “Compound metabolized”; in data set [5], “Compound NOT metabolized”; in data set [16], “Compound metabolized”. Besides, the “Bacterial Biotransformation” value in [17], in data set [6], in [18], in [7], in data set [9] and in [10] was “Compound metabolized” each time. Moreover, the “Bacterial Biotransformation” value in [11] is recorded as “Compound metabolized”; in data set [12], “Compound NOT metabolized”; in data set [13], “Compound metabolized”; in data set [14], “Compound metabolized”; in [15], “Compound metabolized”.

Take `C=CCc1ccccc1OCC(O)CNC(C)C` (stereo not drawn) [ALPRENOLOL]: the “Bacterial Biotransformation” value in [1] is “Compound NOT metabolized”; in data set [2] it was “Compound NOT metabolized”; in data set [3] it was “Compound NOT metabolized”; in data set [19] it was “Compound NOT metabolized”; in data set [4], “Compound NOT metabolized”; in [16], “Compound metabolized”. Moreover, the “Bacterial Biotransformation” value in [17], in data set [6], in data set [7], in data set [9], in [10] and in data set [11] was “Compound NOT metabolized” throughout. The “Bacterial Biotransformation” value in data set [12], in data set [13], in data set [14] and in [15] was “Compound NOT metabolized” throughout.

Regarding `CCS(=O)(=O)CCn1c([N+](=O)[O-])cnc1C` [TINIDAZOLE], the “Bacterial Biotransformation” value is “Compound metabolized” in data set [1]; “Compound metabolized” in [2]; “Compound metabolized” in data set [3]; “Compound metabolized” in data set [19]; “Compound metabolized” in data set [4]; “Compound NOT metabolized” in [5]. Besides, the “Bacterial Biotransformation” value in data set [16], in data set [17], in data set [6], in data set [18], in data set [7] and in data set [9] was “Compound metabolized” throughout. In addition, the “Bacterial Biotransformation” value is “Compound metabolized” in [10]; “Compound metabolized” in data set [11]; “Compound NOT metabolized” in data set [12]; “Compound metabolized” in data set [13]; “Compound metabolized” in [14]; “Compound NOT metabolized” in [20]. Besides, in [15], the “Bacterial Biotransformation” value was “Compound metabolized”.

As to `CC(C)(Oc1ccc(CCNC(=O)c2ccc(Cl)cc2)cc1)C(=O)O` [BEZAFIBRATE], the “Bacterial Biotransformation” value in data set [1], in [2], in data set [3], in data set [19], in [4] and in [5] was “Compound metabolized” in each case. The “Bacterial Biotransformation” value in [16] is “Compound metabolized”; in data set [17] it was “Compound NOT metabolized”; in data set [6], “Compound metabolized”; in [18], “Compound NOT metabolized”; in data set [7] it was “Compound NOT metabolized”; in [8] it was “Compound metabolized”. Besides, the “Bacterial Biotransformation” value in data set [9] is “Compound metabolized”; in [10], “Compound metabolized”; in [12], “Compound metabolized”; in [13], “Compound metabolized”; in [14] it was “Compound NOT metabolized”; in data set [20], “Compound metabolized”. In addition, the “Bacterial Biotransformation” value in [15] is “Compound metabolized”.

Take `CC(=O)Nc1ccc(OC(C)=O)cc1` [DIACETAMATE]: the “Bacterial Biotransformation” value in data set [1], in [2], in data set [3], in [19], in data set [4] and in data set [5] was “Compound metabolized” each time. The “Bacterial Biotransformation” value in data set [16], in [17], in data set [6], in data set [18], in [7] and in [9] was “Compound metabolized” in each case. Also, the “Bacterial Biotransformation” value in data set [10] is “Compound metabolized”; in [11], “Compound metabolized”; in data set [12], “Compound metabolized”; in [13] it was “Compound metabolized”; in data set [14], “Compound metabolized”; in [15] it was “Compound NOT metabolized”.

For `O=C(O)c1cc(/N=N/c2ccc(S(=O)(=O)Nc3ccccn3)cc2)ccc1O` [SULFASALAZINE], the “Bacterial Biotransformation” value in [1] is “Compound metabolized”; in data set [2] it was “Compound metabolized”; in data set [3] it was “Compound metabolized”; in [19], “Compound metabolized”; in data set [4], “Compound metabolized”; in data set [5], “Compound NOT metabolized”. Further, the “Bacterial Biotransformation” value in data set [16], in data set [17], in data set [6], in data set [18], in [7] and in data set [8] was “Compound metabolized” throughout. The “Bacterial Biotransformation” value in data set [9] was “Compound metabolized”; in [10], “Compound metabolized”; in data set [11] it was “Compound metabolized”; in data set [12] it was “Compound NOT metabolized”; in [13] it was “Compound metabolized”; in data set [14], “Compound metabolized”. Besides, in data set [15], the “Bacterial Biotransformation” value is given as “Compound metabolized”.
